Measurements taken from publication PMC12300231, “Ferroptosis Among the Antiproliferative Pathways Activated by a Lipophilic Ruthenium(III) Complex as a Candidate Drug for Triple-Negative Breast Cancer” (Pharmaceutics, 2025).

Legend:
MDA-MB-231 cells = assay: Mitochondria morphological analysis by confocal microscopy (MitoTracker Red); format: cell-based, Human; settings: MDA-MB-231, 48 h, cDDP 10 µM or Erastin 10 µM, vs untreated cells
Experimental: Morphological changes in the mitochondria of MDA-MB-231 cells after treatments in vitro were determined using the MitoTracker Red CMXRos selective probe (Ex\Em 579/599 nm). Briefly, 1.5 × 10^4 cells were seeded in a four-well µ-Slide and incubated for 48 h. Then, cells were treated with the IC50 concentration of PalmiPyRu, cDDP (10 µM) or Erastin (10 µM), respectively, for a further 48 h. After incubations, cells were treated with FBS-free medium containing 100 nM MitoTracker at 37 °C for 20 min. To label the nuclei, a DAPI (Ex/Em 358/461 nm) solution (1:1000) was used at room temperature for 10 min of incubation. Fluorescence images were captured using a confocal microscope (Zeiss LSM 900 Airyscan 2) with a 63× magnification (oil-immersion objective).

BT-549 = assay: Cell survival index (MTT assay plus automated cell count), IC50; format: cell-based, Human; settings: BT-549 TNBC cells, 48 h of incubation, mean ± SEM (n = 15)
Experimental: (§1) The antiproliferative activity was evaluated by estimating a “cell survival index” through targeted bioscreens, which joins cell viability assessment (by the MTT functional assay) with automated cell count (quantitative assay by automatic cell counter). Specifically, the “cell survival index” is calculated as the arithmetic average between the percentage values derived from the MTT assay and automated cell counting. For in vitro treatments, TNBC cell lines (MDA-MB-231, Hs 578T and BT-549) were seeded into 96-well culture plates at a density of 10^4 cells/well and allowed to grow for 24 h. The culture medium was then replaced with fresh medium, and the cells were treated with PalmiPyRu at concentrations ranging from 5 to 150 μM for different times, depending on the type of experiment. Cisplatin (cDDP) was used as a reference drug (positive control).
(§2) The same experimental setup in vitro was applied to assess the biocompatibility of PalmiPyRu on healthy control cell lines (HDFas, HHFKs, HaCaTs and […]). Cell viability was measured using the MTT assay (Sigma, Milan, Italy), which evaluates mitochondrial redox capacity to convert dissolved MTT into insoluble purple formazan. Briefly, after treatments, the medium was removed, and cells were incubated with 20 μL/well of MTT solution (5 mg/mL) for 1 h at 37 °C in a humidified 5% CO2 incubator. […] Finally, absorbance was measured at 550 nm using a microplate reader (ThermoFisher, Waltham, MA, USA). Total cell counting was determined using the TC20 automated cell counter (Bio-Rad, Milan, Italy), which provides accurate and reproducible total cell counts and a live/dead ratio in a single step using a specific dye exclusion assay (Trypan Blue). […] The mixture was loaded into disposable slide chamber and analyzed. The instrument provided a total cell count (cells/mL), live cell count and percent viability, automatically adjusting for dilution if Trypan Blue was detected. […]
(§3) All subsequent in vitro experiments were performed using PalmiPyRu IC50 concentrations, calculated as previously described.

Hs578T = assay: as above; format: cell-based, Human; settings: Hs578T TNBC cells, 48 h of incubation, mean ± SEM (n = 15)
Experimental: as §1, §2, §3

MDA-MB-231 = assay: as above; format: cell-based, Human; settings: MDA-MB-231 TNBC cells, 48 h of incubation, mean ± SEM (n = 15)
Experimental: as §1, §2, §3

HDFa = assay: Cell survival index, biocompatibility on healthy cells; format: cell-based; settings: 48 h of incubation, mean ± SEM (n = 15)
Experimental: as §1, §2, §3

HHFK = assay: as above; format: cell-based; settings: 48 h of incubation, mean ± SEM (n = 15)
Experimental: as §1, §2, §3

MCF-10A = assay: as above; format: cell-based; settings: MCF-10A healthy cells, 48 h of incubation, mean ± SEM (n = 15)
Experimental: as §1, §2, §3

HaCaT = assay: as above; format: cell-based, Human; settings: 48 h of incubation, mean ± SEM (n = 15)
Experimental: The antiproliferative activity was evaluated by estimating a “cell survival index” through targeted bioscreens, which joins cell viability assessment (by the MTT functional assay) with automated cell count (quantitative assay by automatic cell counter). Specifically, the “cell survival index” is calculated as the arithmetic average between the percentage values derived from the MTT assay and automated cell counting. For in vitro treatments, TNBC cell lines (MDA-MB-231, Hs 578T and BT-549) were seeded into 96-well culture plates at a density of 10^4 cells/well and allowed to grow for 24 h. […]
as §2, with “formazan.” for “formazan. Briefly, after treatments, the medium was removed, and cells were incubated with 20 μL/well of MTT solution (5 mg/mL) for 1 h at 37 °C in a humidified 5% CO2 incubator.”, “analyzed.” for “analyzed. The instrument provided a total cell count (cells/mL), live cell count and percent viability, automatically adjusting for dilution if Trypan Blue was detected.”

Q: With `CCOc1ccccc1-n1c(C(C)N2CCN(C(=O)COc3ccc(Cl)cc3)CC2)nc2ccccc2c1=O` (stereo not drawn) [Erastin] as the compound, how does the “Mitochondrial red fluorescent signal (MitoTracker)” value (MDA-MB-231 cells) read?
A: Its value is “lowered the mitochondrial fluorescent signal”.

Q: `[NH2][Pt]([NH2])([Cl])[Cl]` [cDDP, cisplatin] was tested. Which IC50 (BT-549) did it give?
A: The IC50 was 15 ± 2 µM.

Q: And the IC50 (Hs578T)?
A: Its IC50 is 20 ± 4 µM.

Q: And the IC50 (MDA-MB-231)?
A: Its IC50 is 11 ± 3 µM.

Q: And the IC50 (HDFa)?
A: The IC50 was 72 ± 4 µM.

Q: And the IC50 (HHFK)?
A: Its IC50 is 93 ± 3 µM.

Q: What about the IC50 (MCF-10A) of the same compound?
A: Its IC50 is 88 ± 3 µM.

Q: What about the IC50 (HaCaT) of the same compound?
A: The IC50 was 50 ± 3 µM.

Q: And the “Mitochondrial red fluorescent signal (MitoTracker)” value (MDA-MB-231 cells)?
A: The value was “significantly reduced”.
